Measurements as given in patent US8148391B2 (Cephalon, Inc., priority 2006, dated 2012).
Read-outs that look alike come from different tables or passages of the source. Each block holds one molecule with its values, some of them ahead of it.

Legend:
[1] = target: T1, baculovirus-expressed ALK (Homo sapiens, UniProt Q9UM73); experiment: ALK Kinase Assay (ELISA-type, time-resolved fluorescence); format: biochemical
T1 construct: host or cells: baculovirus expression system
How it was run: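 Wells were coated with phospholipase C-γ at 10 μg/mL in Tris-buffered saline. Adding 30 ng/ml enzyme started the reaction, which ran at 37° C for 15 minutes before Eu-N1 PT66 antibody detection. Percent inhibition versus log10 concentration gave IC50 by variable-slope fit.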

[2] = target: T2, c-Met (cytoplasmic domain) (Homo sapiens, UniProt P08581); experiment: c-Met Kinase Assay (same methods as for ALK, with modifications); format: biochemical
T2 construct: 10 ng/mL c-Met (cytoplasmic domain, Invitrogen Corporation #PV3143); purchased Invitrogen Corporation PV3143
How it was run: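 IC50 values were fitted by variable-slope sigmoidal regression of percent inhibition against log compound concentration. Phosphorylation was read with Eu-N1 PT66 antibody after a 15 min, 37 °C reaction. The reaction was initiated with 10 ng/mL c-Met cytoplasmic domain on wells coated with 10 μg/mL PLC-γ in TBS.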

[3] = ALK kinase inhibition, 1 μM ATP (Km level), read-out: ALK Activity
[4] = c-Met kinase inhibition, 1 μM ATP (Km level), read-out: cMet Activity
[5] = 1 μM ATP (Km level), read-out: ALK Activity (ALK Kinase Inhibition, IC50)
[6] = 1 μM ATP (Km level), read-out: cMet Activity (c-Met Kinase Inhibition, IC50)
[7] = ALK kinase inhibition, 1 μM ATP, read-out: ALK Activity
[8] = c-Met kinase inhibition, 1 μM ATP, read-out: cMet Activity
[9] = 1 μM ATP (Km level), 30 ng/ml ALK, 37° C., 15 minutes, read-out: ALK Activity (ALK kinase inhibition, IC50 class)
[10] = 1 μM ATP (Km level), 10 ng/mL c-Met, read-out: cMet Activity (c-Met kinase inhibition, IC50 class)

T2 sequence (P08581 956-1390 limits assumed): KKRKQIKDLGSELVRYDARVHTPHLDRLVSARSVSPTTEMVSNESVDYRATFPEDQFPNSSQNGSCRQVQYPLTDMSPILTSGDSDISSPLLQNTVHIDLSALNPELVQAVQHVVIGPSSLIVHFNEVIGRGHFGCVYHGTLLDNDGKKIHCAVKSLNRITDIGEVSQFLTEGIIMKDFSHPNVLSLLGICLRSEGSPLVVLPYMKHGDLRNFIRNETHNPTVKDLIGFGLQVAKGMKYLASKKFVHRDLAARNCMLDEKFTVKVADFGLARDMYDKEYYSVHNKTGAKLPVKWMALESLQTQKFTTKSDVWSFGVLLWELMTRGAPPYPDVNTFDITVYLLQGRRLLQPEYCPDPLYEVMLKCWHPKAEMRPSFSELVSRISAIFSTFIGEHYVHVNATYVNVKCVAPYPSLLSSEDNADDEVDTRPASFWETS
T1 sequence (Q9UM73 19-1620): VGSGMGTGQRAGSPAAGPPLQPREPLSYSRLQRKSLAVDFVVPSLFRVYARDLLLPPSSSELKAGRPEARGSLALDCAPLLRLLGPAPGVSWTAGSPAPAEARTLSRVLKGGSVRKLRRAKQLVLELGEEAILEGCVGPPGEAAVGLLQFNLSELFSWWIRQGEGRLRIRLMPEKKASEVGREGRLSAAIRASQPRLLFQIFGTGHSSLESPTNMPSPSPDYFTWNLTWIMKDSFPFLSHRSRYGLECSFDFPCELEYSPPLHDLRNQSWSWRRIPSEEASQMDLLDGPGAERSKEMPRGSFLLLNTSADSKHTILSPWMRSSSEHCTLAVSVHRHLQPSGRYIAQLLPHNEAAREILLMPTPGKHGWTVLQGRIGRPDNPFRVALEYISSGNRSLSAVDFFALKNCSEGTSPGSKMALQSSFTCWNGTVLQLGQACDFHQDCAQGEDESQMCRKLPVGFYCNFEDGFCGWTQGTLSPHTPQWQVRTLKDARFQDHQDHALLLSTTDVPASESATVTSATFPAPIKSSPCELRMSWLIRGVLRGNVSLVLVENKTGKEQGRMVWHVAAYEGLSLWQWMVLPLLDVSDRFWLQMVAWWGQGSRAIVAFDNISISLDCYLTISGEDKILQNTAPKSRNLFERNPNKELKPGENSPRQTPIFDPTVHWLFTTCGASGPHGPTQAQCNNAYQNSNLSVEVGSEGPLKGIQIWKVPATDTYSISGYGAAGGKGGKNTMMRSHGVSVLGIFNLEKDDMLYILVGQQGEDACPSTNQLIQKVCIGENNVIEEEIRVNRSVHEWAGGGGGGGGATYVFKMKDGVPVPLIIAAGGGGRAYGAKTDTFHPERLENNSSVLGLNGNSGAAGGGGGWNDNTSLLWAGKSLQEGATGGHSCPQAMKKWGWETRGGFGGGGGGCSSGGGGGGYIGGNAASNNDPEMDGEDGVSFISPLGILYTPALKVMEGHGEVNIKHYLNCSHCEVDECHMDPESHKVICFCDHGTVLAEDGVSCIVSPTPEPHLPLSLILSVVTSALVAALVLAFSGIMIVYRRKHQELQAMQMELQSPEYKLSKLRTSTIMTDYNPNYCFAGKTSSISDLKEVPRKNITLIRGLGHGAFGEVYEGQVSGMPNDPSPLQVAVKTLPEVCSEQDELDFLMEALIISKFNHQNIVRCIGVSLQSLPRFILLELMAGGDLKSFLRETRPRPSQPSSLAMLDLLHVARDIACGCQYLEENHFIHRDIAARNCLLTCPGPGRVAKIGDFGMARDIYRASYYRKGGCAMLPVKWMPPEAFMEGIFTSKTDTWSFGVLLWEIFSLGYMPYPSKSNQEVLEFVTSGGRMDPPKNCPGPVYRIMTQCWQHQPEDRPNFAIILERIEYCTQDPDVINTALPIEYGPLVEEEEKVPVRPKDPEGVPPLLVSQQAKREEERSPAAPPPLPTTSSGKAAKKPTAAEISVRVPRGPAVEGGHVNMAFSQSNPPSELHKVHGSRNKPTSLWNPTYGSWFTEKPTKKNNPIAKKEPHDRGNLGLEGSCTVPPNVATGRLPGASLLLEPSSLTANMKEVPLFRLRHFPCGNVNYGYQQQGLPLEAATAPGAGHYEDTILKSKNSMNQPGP

Compound: C#CCN1CC2CCC(C1)c1cc(Nc3ncc(Cl)c(Nc4ccccc4S(=O)(=O)N(C)CC#C)n3)ccc12 (stereo not shown) [Example 288, 2-[5-Chloro-2-(10-prop-2-ynyl-10-aza-tricyclo[6.3.2.0*2,7*]trideca-2,4,6-trien-4-ylamino)-pyrimidin-4-ylamino]-N-methyl-N-prop-2-ynyl-benzenesulfonamide]
IC50 [1, 3]: < 100 nM | IC50 [2, 4]: 100 to 1000 nM

Compound: CN1CCN(C2CCc3ccc(Nc4ncc(Cl)c(Nc5ccccc5S(=O)(=O)N(C)C)n4)cc3CC2)CC1 (stereo not shown) [Example 890, 2-{5-Chloro-2-[7-(4-methyl-piperazin-1-yl)-6,7,8,9-tetrahydro-5H-benzocyclohepten-2-ylamino]-pyrimidin-4-ylamino}-N,N-dimethyl-benzenesulfonamide]
IC50 [1, 5]: < 100 nM | IC50 [2, 6]: 100 to 1000 nM

Compound: CS(=O)(=O)N[C@@H]1CCCC[C@H]1Nc1nc(Nc2ccc3c(c2)C2CCC3CN(C(=O)C(F)(F)F)C2)ncc1Cl (mixture of isomers) [Example 292, N-((1R,2R)-2-{5-Chloro-2-[10-(2,2,2-trifluoro-acetyl)-10-aza-tricyclo[6.3.2.0*2,7*]trideca-2,4,6-trien-4-ylamino]-pyrimidin-4-ylamino}-cyclohexyl)-methanesulfonamide]
IC50 [1, 3]: < 100 nM | IC50 [2, 4]: 1000 to 10000 nM

Compound: COc1cc2c(cc1Nc1ncc(Cl)c(N[C@H]3[C@@H](C(N)=O)[C@@H]4C=C[C@H]3C4)n1)CCN(CC(=O)N(C)C)CC2 [Example 1123, (1S,2S,3R,4R)-3-[5-Chloro-2-(3-dimethylcarbamoylmethyl-8-methoxy-2,3,4,5-tetrahydro-1H-benzo[d]azepin-7-ylamino)-pyrimidin-4-ylamino]-bicyclo[2.2.1]hept-5-ene-2-carboxylic acid amide]
IC50 [1, 9]: < 100 nM | IC50 [2, 10]: > 10000 nM

Compound: CCCN1CCc2cc(Nc3ncc(Cl)c(N[C@H]4[C@@H](C(N)=O)[C@@H]5C=C[C@H]4C5)n3)c(OC)cc2CC1 [Example 774, (1S,2S,3R,4R)-3-[5-Chloro-2-(8-methoxy-3-propyl-2,3,4,5-tetrahydro-1H-benzo[d]azepin-7-ylamino)-pyrimidin-4-ylamino]-bicyclo[2.2.1]hept-5-ene-2-carboxylic acid amide]
IC50 [1, 5]: < 100 nM | IC50 [2, 6]: > 10000 nM

Compound: COCCN1CCc2ccc(Nc3ncc(Cl)c(Nc4ccc(N5CCOCC5)cc4OC)n3)cc2CC1 [Example 309, 5-Chloro-N*2*-[3-(2-methoxy-ethyl)-2,3,4,5-tetrahydro-1H-benzo[d]azepin-7-yl]-N*4*-(2-methoxy-4-morpholin-4-yl-phenyl)-pyrimidine-2,4-diamine]
IC50 [1, 3]: < 100 nM | IC50 [2, 4]: 100 to 1000 nM

Compound: COCCNC1CCCc2c(ccc(Nc3ncc(Cl)c(N[C@H]4[C@@H](C(N)=O)[C@@H]5C=C[C@H]4C5)n3)c2OC)C1 (stereo partly drawn) [Example 956, (1S,2S,3R,4R)-3-{5-Chloro-2-[1-methoxy-6-(2-methoxy-ethylamino)-6,7,8,9-tetrahydro-5H-benzocyclohepten-2-ylamino]-pyrimidin-4-ylamino}-bicyclo[2.2.1]hept-5-ene-2-carboxylic acid amide]
IC50 [1, 5]: < 100 nM | IC50 ([2]; cMet Activity (c-Met Kinase Inhibition, IC50), 1 μM ATP (Km level)): > 10000 nM

Compound: COCCN1CCc2cc(Nc3ncc(Cl)c(N[C@@H]4CCCC[C@H]4NS(C)(=O)=O)n3)c(OC)cc2CC1 [Example 111, N-((1R,2R)-2-{5-Chloro-2-[8-methoxy-3-(2-methoxy-ethyl)-2,3,4,5-tetrahydro-1H-benzo[d]azepin-7-ylamino]-pyrimidin-4-ylamino}-cyclohexyl)-methanesulfonamide]
IC50 [1, 3]: < 100 nM | IC50 [2, 4]: > 10000 nM

Compound: COc1cc2c(cc1Nc1ncc(Cl)c(Nc3ccc(N(C)C)cc3S(=O)(=O)C(C)C)n1)CCN(CC(=O)N(C)C)CC2 [Example 1187, 2-(7-{5-Chloro-4-[4-dimethylamino-2-(propane-2-sulfonyl)-phenylamino]-pyrimidin-2-ylamino}-8-methoxy-1,2,4,5-tetrahydro-benzo[d]azepin-3-yl)-N,N-dimethyl-acetamide]
IC50 [1, 9]: < 100 nM | IC50 [2, 10]: > 10000 nM

Compound: CCNC(=O)c1ccccc1Nc1nc(Nc2ccc3c(c2)C(C)(C)CCC(=O)N3)ncc1Cl [Example 339]
IC50 [1, 3]: < 100 nM | IC50 [2, 4]: < 100 nM

Compound: COc1cc2c(cc1Nc1ncc(Cl)c(Nc3cc(C(N)=O)ccc3OC)n1)CCN(CCS(C)(=O)=O)CC2 [Example 1137, 3-{5-Chloro-2-[3-(2-methanesulfonyl-ethyl)-8-methoxy-2,3,4,5-tetrahydro-1H-benzo[d]azepin-7-ylamino]-pyrimidin-4-ylamino}-4-methoxy-benzamide]
IC50 [1, 9]: 100 to 1000 nM | IC50 [2, 10]: > 10000 nM

Compound: CCN1CCCOc2cc(Nc3ncc(Cl)c(N[C@@H]4CCCC[C@H]4NS(C)(=O)=O)n3)ccc21 [Example 1693, N-{(1R,2R)-2-[5-Chloro-2-(9-ethyl-6,7,8,9-tetrahydro-5-oxa-9-aza-benzocyclohepten-3-ylamino)-pyrimidin-4-ylamino]-cyclohexyl}-methanesulfonamide]
IC50 [1, 7]: < 100 nM | IC50 [2, 8]: 100 to 1000 nM

Compound: CCN1CCN(CC)c2cc(Nc3ncc(Cl)c(Nc4ccccc4S(=O)(=O)C(C)C)n3)ccc2C1 [Example 728, 5-Chloro-N(2)-(1,4-diethyl-2,3,4,5-tetrahydro-1H-benzo[e][1,4]diazepin-8-yl)-N(4)-[2-(propane-2-sulfonyl)-phenyl]-pyrimidine-2,4-diamine]
IC50 [1, 5]: < 100 nM | IC50 [2, 6]: 100 to 1000 nM

Compound: COc1cc2c(cc1Nc1ncc(Cl)c(N[C@@H]3CCCC[C@H]3NS(C)(=O)=O)n1)CCN(C(=O)C(F)(F)F)CC2 [Example 247, N-((1R,2R)-2-{5-Chloro-2-[8-methoxy-3-(2,2,2-trifluoro-acetyl)-2,3,4,5-tetrahydro-1H-benzo[d]azepin-7-ylamino]-pyrimidin-4-ylamino}-cyclohexyl)-methanesulfonamide]
IC50 [1, 3]: < 100 nM | IC50 [2, 4]: > 10000 nM

Compound: COCCN1CCc2ccc(Nc3ncc(Cl)c(Nc4cc(Cl)ccc4OC)n3)cc2CC1 [Example 146, 5-Chloro-N*4*-(5-chloro-2-methoxy-phenyl)-N*2*-[3-(2-methoxy-ethyl)-2,3,4,5-tetrahydro-1H-benzo[d]azepin-7-yl]-pyrimidine-2,4-diamine]
IC50 [1, 3]: < 100 nM | IC50 [2, 4]: 100 to 1000 nM

Further lines, results first:

IC50 [1, 7]: < 100 nM | IC50 [2, 8]: 100 to 1000 nM
Compound: CNC(=O)c1scc(C)c1Nc1nc(Nc2ccc3c(c2)CC(=O)N(C)CC3)ncc1Cl [Example 1816, 3-[5-Chloro-2-(3-methyl-4-oxo-2,3,4,5-tetrahydro-1H-benzo[d]azepin-7-ylamino)-pyrimidin-4-ylamino]-4-methyl-thiophene-2-carboxylic acid methylamide]

IC50 [1, 7]: 1000 to 10000 nM | IC50 [2, 8]: < 100 nM
Compound: CNC(=O)c1cccc(Br)c1Nc1nc(Nc2ccc3c(c2)CCOC(=O)N3C)ncc1Cl [Example 1751, 3-Bromo-2-[5-chloro-2-(5-methyl-6-oxo-5,6,8,9-tetrahydro-7-oxa-5-aza-benzocyclohepten-2-ylamino)-pyrimidin-4-ylamino]-N-methyl-benzamide]

IC50 [1, 7]: 100 to 1000 nM | IC50 [2, 8]: 100 to 1000 nM
Compound: CNC(=O)c1sccc1Nc1nc(Nc2ccc3c(c2)N(C(=O)CN2CCCC2)CCCO3)ncc1Cl [Example 1705, 3-{5-Chloro-2-[9-(2-pyrrolidin-1-yl-acetyl)-6,7,8,9-tetrahydro-5-oxa-9-aza-benzocyclohepten-2-ylamino]-pyrimidin-4-ylamino}-thiophene-2-carboxylic acid methylamide]

IC50 [1, 7]: 100 to 1000 nM | IC50 [2, 8]: 100 to 1000 nM
Compound: Cc1cnc(-c2sccc2Nc2nc(Nc3ccc4c(c3)CCOC(=O)N4C)ncc2Cl)o1 [Example 1790, 2-{5-Chloro-4-[2-(5-methyl-oxazol-2-yl)-thiophen-3-ylamino]-pyrimidin-2-ylamino}-5-methyl-8,9-dihydro-5H-7-oxa-5-aza-benzocyclohepten-6-one]

IC50 [1, 3]: < 100 nM | IC50 [2, 4]: < 100 nM
Compound: CNC(=O)c1ccccc1Nc1nc(Nc2ccc3c(c2)CCC(=O)CC3)ncc1Cl [Example 172, 2-[5-Chloro-2-(7-oxo-6,7,8,9-tetrahydro-5H-benzocyclo-hepten-2-ylamino)-pyrimidin-4-ylamino]-N-methyl-benzamide]

IC50 [1, 3]: < 100 nM | IC50 [2, 4]: 100 to 1000 nM
Compound: CCN1CCc2ccc(Nc3ncc(Cl)c(Nc4ccccc4-c4nccn4C)n3)cc2CC1 [Example 216, 5-Chloro-N*2*-(3-ethyl-2,3,4,5-tetrahydro-1H-benzo[d]azepin-7-yl)-N*4*-[2-(1-methyl-1H-imidazol-2-yl)-phenyl]-pyrimidine-2,4-diamine]

IC50 [1, 7]: 100 to 1000 nM | IC50 [2, 8]: 100 to 1000 nM
Compound: CNC(=O)c1sccc1Nc1nc(Nc2ccc3c(c2)-n2ccnc2CCC3)ncc1Cl [Example 1840, 3-[5-Chloro-2-(5,6-dihydro-4H-3,10b-diaza-benzo[e]azulen-9-ylamino)-pyrimidin-4-ylamino]-thiophene-2-carboxylic acid methylamide]

IC50 [1, 3]: 100 to 1000 nM | IC50 [2, 4]: < 100 nM
Compound: CNC(=O)c1sccc1Nc1nc(Nc2ccc3c(c2)N(C(C)=O)CC(=O)NC3)ncc1Cl [Example 1878, 3-[2-(1-Acetyl-3-oxo-2,3,4,5-tetrahydro-1H-benzo[e][1,4]diazepin-8-ylamino)-5-chloro-pyrimidin-4-ylamino]-thiophene-2-carboxylic acid methyl amide]
